Measured values as given in patent US8586109B2, “Annatto extract compositions including tocotrienols and tocopherols and methods of use” (American River Nutrition, Inc., priority 2003, dated 2013).

Legend:
cholesterol = details: Pearce et al. 1992; cited from earlier work
[1] = some biologic systems; cited from earlier work
essential hypertension = experiment: Hypertension (Example 13); details: in vivo
Source text: Also, C-5 unsubstituted tocols (i.e., all delta and gamma isomers) had this effect.

[2] = cited from earlier work
IKBKAP = details: Anderson et al. 2003; cited from earlier work
[3] = tested on: spontaneous hypertensive rats (SHR); details: Newaz and Nawal 1999; cited from earlier work
C-reactive protein = details: higher dosage needed; cited from earlier work

| Compound | isomeric potency of cholesterol reduction (relative) (cholesterol) | anti-oxidant power compared to alpha-T1 [1] | NOS activity (essential hypertension) | essential hypertension (essential hypertension) | Biologic activity relative to alpha-T3 ([2]; greater than alpha-T3) | Biologic activity relative to gamma-T3 ([2]; greater than gamma-T3) | increase of IKBKAP gene transcription (IKBKAP) [fold] | development of increased blood pressure (essential hypertension) | development of increased blood pressure [3] | required dosage to lower CRP to a comparable range, relative to annatto tocotrienols (C-reactive protein) |
| --- | --- | --- | --- | --- | --- | --- | --- | --- | --- | --- |
| Alpha-tocotrienol | at least five-fold less active | (40-60X in some biologic systems). First discovered to reduce cholesterol, | – | – | – | – | – | – | – | – |
| CC(C)=CCC/C(C)=C/CC/C(C)=C/CC[C@]1(C)CCc2cc(O)cc(C)c2O1 [Delta-tocotrienol, delta-tocotrienol] | greater than gamma-T3 | – | increased NOS activity | reduced essential hypertension | 4-10 times | 1-2 times | 3.5 | – | – | – |
| CC(C)=CCC/C(C)=C/CC/C(C)=C/CC[C@]1(C)CCc2cc(O)c(C)c(C)c2O1 [Gamma-T3, gamma-tocotrienol] | five-fold greater than alpha-T3 | – | increased NOS activity | reduced essential hypertension | – | – | – | prevented the development of increased blood pressure | prevent the development of increased blood pressure | – |
| Cc1c(C)c2c(c(C)c1O)CC[C@@](C)(CCC[C@H](C)CCC[C@H](C)CCCC(C)C)O2 [alpha-T1, Alpha-tocopherol] | – | – | – | – | – | – | – | – | – | approximately 10 fold |
